In PMC9329436, “Optimization of the 4-anilinoquin(az)oline scaffold as epidermal growth factor receptor (EGFR) inhibitors for chordoma utilizing a toxicology profiling assay platform” (Scientific Reports, 2022):
Read-outs that look alike come from different tables or passages of the source.

Legend:
Type in all cases: biochemical
[1] = target: T1, 320 wild-type protein kinases (Homo sapiens, UniProt O00444); details: kinase SAK, singlicate
T1 sequence (O00444 1-970): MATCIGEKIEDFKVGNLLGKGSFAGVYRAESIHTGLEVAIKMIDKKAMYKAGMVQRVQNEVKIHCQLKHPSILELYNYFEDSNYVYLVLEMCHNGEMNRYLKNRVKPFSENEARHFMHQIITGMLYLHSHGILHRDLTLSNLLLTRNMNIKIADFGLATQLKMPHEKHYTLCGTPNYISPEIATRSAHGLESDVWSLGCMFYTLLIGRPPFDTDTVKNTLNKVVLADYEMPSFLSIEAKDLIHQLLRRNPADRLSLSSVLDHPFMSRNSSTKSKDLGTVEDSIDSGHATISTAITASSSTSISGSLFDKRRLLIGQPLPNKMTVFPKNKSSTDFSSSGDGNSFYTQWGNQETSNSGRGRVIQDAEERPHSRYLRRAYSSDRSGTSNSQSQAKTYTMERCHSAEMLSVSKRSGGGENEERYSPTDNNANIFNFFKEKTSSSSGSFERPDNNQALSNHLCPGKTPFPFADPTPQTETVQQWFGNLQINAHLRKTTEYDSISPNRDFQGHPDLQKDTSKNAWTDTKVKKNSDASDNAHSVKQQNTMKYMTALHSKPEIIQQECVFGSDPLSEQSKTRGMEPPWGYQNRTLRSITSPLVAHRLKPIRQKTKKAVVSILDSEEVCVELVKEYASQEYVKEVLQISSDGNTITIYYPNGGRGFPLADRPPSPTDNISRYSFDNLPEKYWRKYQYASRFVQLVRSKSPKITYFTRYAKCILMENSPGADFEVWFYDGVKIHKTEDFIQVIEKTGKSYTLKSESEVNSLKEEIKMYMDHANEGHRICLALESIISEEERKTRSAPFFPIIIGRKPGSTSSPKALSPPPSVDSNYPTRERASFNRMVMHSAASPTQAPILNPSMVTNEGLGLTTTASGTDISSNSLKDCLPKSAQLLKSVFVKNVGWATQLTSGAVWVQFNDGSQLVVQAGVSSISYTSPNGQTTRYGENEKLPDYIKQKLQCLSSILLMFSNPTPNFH
Source text: (§1) Table S4. Profiling of two compounds at two concentrations against 320 wild-type protein kinases; singlicate measurement; Residual activities (% of control).

[2] = target: 320 wild-type protein kinases (Homo sapiens, UniProt P09769); details: FGR, singlicate
Source text: as §1

[3] = target: 320 wild-type protein kinases (Homo sapiens, UniProt P41279); details: COT, singlicate
Source text: as §1

[4] = target: T2, 320 wild-type protein kinases (Homo sapiens, UniProt P41743); details: PKC-iota, singlicate
T2 sequence (P41743 1-596): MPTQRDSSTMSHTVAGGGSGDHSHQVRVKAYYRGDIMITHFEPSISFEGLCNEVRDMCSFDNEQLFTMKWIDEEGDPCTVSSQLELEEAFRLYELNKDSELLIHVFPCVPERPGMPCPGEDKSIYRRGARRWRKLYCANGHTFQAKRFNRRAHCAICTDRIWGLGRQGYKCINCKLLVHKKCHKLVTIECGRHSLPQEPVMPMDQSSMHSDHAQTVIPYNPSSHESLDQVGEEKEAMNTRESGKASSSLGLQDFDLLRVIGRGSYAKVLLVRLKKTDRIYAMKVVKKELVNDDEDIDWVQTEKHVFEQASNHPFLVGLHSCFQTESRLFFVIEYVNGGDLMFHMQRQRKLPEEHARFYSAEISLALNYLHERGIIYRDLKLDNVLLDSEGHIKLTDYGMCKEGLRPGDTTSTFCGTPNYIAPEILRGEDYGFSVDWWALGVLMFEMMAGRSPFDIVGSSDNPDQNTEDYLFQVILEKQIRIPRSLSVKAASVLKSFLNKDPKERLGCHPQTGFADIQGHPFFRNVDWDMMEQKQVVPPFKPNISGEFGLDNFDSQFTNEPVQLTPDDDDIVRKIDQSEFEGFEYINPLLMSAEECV
Source text: as §1

[5] = target: 320 wild-type protein kinases (Homo sapiens, UniProt P49759); details: singlicate
Source text: as §1

[6] = target: 320 wild-type protein kinases (Homo sapiens, UniProt P51957); details: singlicate
Source text: as §1

[7] = target: 320 wild-type protein kinases (Homo sapiens, UniProt P53671); details: singlicate
Source text: as §1

[8] = target: T3, 320 wild-type protein kinases (Homo sapiens, UniProt P53778); details: p38-gamma, singlicate
T3 sequence (P53778 1-367): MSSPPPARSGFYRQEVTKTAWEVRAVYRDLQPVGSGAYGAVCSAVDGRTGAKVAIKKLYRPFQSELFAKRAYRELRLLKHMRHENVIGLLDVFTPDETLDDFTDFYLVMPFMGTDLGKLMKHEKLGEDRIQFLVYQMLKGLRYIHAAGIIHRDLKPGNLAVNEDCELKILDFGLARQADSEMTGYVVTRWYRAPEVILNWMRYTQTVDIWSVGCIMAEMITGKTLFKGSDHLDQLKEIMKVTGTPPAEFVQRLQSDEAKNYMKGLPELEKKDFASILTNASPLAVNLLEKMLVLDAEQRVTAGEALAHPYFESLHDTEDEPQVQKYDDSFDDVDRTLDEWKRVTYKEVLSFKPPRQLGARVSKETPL
Source text: as §1

[9] = target: 320 wild-type protein kinases (Homo sapiens, UniProt Q00526); details: singlicate
Source text: as §1

[10] = target: 320 wild-type protein kinases (Homo sapiens, UniProt Q7KZI7); details: singlicate
Source text: as §1

[11] = target: 320 wild-type protein kinases (Homo sapiens, UniProt Q8TDX7); details: singlicate
Source text: as §1

Chain of 320 wild-type protein kinases (Homo sapiens, UniProt Q7KZI7) (Q7KZI7 whole entry): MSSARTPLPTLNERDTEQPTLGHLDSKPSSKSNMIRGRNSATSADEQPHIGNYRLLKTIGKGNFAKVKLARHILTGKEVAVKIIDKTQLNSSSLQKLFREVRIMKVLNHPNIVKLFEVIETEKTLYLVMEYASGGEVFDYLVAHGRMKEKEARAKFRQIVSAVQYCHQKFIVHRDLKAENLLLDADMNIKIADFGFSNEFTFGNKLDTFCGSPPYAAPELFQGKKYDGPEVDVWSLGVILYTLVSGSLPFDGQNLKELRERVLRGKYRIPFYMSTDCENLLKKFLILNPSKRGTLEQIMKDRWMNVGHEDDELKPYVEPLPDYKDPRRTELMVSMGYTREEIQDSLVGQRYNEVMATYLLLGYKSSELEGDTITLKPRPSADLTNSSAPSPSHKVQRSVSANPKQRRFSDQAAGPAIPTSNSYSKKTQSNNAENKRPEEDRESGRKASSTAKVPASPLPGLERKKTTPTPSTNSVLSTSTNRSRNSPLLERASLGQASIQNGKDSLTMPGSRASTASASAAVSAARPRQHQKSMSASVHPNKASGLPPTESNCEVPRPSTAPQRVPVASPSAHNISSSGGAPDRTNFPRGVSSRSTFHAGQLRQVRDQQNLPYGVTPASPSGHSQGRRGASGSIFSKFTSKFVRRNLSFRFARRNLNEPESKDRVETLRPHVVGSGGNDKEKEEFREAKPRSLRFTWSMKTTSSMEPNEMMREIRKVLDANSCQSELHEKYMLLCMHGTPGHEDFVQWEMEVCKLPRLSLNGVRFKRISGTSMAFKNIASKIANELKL
Chain of 320 wild-type protein kinases (Homo sapiens, UniProt P49759) (P49759 whole entry): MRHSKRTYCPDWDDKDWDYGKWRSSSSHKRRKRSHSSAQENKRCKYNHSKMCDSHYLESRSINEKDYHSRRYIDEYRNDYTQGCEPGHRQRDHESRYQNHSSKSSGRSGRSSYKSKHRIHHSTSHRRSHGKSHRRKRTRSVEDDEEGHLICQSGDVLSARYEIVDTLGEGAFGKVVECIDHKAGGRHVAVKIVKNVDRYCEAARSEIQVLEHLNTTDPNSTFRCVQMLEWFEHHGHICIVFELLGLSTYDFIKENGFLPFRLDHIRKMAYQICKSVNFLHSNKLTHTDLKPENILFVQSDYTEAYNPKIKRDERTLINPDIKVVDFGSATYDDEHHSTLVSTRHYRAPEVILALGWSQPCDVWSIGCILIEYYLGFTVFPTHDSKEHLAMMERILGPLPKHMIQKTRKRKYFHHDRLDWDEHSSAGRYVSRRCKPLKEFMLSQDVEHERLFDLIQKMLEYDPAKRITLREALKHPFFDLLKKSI
Chain of 320 wild-type protein kinases (Homo sapiens, UniProt P09769) (P09769 whole entry): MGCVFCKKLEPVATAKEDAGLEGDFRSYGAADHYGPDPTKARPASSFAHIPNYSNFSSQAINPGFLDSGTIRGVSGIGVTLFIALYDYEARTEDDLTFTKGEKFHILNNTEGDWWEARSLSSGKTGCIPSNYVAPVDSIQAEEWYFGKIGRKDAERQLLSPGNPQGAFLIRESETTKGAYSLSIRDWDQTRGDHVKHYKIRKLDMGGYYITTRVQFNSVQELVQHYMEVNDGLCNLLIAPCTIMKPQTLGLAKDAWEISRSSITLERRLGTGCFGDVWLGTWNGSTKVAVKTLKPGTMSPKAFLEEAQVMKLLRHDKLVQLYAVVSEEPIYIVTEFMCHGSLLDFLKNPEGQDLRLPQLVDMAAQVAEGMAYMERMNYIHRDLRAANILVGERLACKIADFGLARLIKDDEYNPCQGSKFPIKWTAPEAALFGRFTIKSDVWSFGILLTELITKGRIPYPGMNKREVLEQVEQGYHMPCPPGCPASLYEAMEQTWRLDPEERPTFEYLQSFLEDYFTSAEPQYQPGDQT
Chain of 320 wild-type protein kinases (Homo sapiens, UniProt P51957) (P51957 whole entry): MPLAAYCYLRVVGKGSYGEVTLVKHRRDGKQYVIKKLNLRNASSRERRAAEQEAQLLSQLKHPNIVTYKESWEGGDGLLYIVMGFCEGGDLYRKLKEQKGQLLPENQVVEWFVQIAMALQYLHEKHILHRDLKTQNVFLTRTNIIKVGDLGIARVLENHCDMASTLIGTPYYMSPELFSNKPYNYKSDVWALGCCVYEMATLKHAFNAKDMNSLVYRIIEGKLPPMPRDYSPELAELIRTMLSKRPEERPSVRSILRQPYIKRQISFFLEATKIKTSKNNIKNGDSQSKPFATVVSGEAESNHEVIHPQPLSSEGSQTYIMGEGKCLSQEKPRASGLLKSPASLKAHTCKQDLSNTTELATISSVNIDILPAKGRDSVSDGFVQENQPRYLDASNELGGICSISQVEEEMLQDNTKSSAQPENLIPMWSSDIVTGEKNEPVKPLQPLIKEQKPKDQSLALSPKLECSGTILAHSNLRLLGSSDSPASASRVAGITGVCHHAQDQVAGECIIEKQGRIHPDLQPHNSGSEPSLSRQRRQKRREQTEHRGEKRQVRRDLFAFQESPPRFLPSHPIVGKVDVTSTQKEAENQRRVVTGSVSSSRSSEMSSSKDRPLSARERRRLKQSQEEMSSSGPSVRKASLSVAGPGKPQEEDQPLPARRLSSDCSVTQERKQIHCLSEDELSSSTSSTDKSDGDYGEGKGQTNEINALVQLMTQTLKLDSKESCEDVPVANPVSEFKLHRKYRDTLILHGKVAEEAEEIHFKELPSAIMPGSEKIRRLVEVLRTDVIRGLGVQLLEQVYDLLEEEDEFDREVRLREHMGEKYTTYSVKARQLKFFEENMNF
Chain of 320 wild-type protein kinases (Homo sapiens, UniProt Q8TDX7) (Q8TDX7 whole entry): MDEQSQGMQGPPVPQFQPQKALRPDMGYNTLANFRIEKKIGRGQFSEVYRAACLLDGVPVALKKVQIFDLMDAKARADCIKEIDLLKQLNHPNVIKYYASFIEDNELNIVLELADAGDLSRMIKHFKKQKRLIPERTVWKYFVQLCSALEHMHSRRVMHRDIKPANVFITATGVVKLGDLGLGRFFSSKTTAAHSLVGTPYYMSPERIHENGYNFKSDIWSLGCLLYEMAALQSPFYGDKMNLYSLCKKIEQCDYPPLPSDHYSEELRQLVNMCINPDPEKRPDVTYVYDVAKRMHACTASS
Chain of 320 wild-type protein kinases (Homo sapiens, UniProt Q00526) (Q00526 whole entry): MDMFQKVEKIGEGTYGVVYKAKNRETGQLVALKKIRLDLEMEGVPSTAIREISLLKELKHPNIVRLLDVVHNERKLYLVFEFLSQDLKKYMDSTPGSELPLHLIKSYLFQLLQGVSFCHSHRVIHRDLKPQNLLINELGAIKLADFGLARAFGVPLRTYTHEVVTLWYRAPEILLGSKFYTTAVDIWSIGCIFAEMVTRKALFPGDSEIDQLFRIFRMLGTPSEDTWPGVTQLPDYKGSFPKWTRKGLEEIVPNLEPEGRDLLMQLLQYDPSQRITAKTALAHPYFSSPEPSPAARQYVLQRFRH
Chain of 320 wild-type protein kinases (Homo sapiens, UniProt P41279) (P41279 whole entry): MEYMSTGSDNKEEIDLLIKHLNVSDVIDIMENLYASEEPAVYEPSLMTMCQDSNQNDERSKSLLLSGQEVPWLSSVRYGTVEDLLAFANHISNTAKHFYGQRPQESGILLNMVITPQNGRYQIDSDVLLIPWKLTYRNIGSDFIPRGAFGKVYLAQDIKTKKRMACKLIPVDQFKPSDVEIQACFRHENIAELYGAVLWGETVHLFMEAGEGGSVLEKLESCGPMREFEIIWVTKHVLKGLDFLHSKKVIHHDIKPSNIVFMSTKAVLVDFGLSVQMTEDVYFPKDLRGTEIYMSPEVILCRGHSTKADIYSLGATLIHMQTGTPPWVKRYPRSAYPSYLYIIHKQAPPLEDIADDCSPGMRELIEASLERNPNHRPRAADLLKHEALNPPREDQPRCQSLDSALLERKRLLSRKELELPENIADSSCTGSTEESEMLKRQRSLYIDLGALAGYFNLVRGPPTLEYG
Chain of 320 wild-type protein kinases (Homo sapiens, UniProt P53671) (P53671 whole entry): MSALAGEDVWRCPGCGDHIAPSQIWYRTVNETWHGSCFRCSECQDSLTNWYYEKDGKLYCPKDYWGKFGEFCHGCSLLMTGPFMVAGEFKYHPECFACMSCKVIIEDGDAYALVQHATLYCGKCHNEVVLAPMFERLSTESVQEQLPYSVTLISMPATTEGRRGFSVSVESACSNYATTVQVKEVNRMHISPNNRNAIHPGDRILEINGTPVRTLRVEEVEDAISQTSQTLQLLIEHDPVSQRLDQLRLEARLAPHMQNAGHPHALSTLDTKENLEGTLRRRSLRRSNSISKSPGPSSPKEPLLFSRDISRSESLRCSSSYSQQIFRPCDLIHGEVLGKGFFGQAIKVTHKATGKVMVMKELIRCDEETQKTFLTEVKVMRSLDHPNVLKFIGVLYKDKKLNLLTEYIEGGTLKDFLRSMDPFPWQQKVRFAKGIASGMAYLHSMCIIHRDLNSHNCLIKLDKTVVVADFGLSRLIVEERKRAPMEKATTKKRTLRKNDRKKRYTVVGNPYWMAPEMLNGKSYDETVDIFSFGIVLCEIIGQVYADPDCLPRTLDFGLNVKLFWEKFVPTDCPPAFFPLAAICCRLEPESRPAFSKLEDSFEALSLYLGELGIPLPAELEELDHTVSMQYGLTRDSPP

C#Cc1cc(Nc2ncnc3cc(I)ccc23)ccc1Cl [Compound 41]
Residual activity, SAK ([1]; assay conc. 1.0E-06 M): 77 % of control | Residual activity, SAK ([1]; assay conc. 1.0E-07 M): 95 % of control | Residual activity ([2]; 1.0E-06 M): 114 % of control | Residual activity ([2]; 1.0E-07 M): 129 % of control | Residual activity ([3]; 1.0E-06 M): 91 % of control | Residual activity ([3]; 1.0E-07 M): 91 % of control | Residual activity ([4]; 1.0E-06 M): 104 % of control | Residual activity ([4]; 1.0E-07 M): 119 % of control | Residual activity ([5]; CLK1, 1.0E-06 M): 89 % of control | Residual activity ([5]; CLK1, 1.0E-07 M): 89 % of control | Residual activity ([6]; NEK4, 1.0E-06 M): 94 % of control | Residual activity ([6]; NEK4, 1.0E-07 M): 100 % of control | Residual activity ([7]; LIMK2, 1.0E-06 M): 100 % of control | Residual activity ([7]; LIMK2, 1.0E-07 M): 92 % of control | Residual activity ([8]; 1.0E-06 M): 78 % of control | Residual activity ([8]; 1.0E-07 M): 87 % of control | Residual activity ([9]; CDK3/CycC, 1.0E-06 M): 87 % of control | Residual activity ([9]; CDK3/CycC, 1.0E-07 M): 90 % of control | Residual activity ([9]; CDK3/CycE1, 1.0E-06 M): 96 % of control | Residual activity ([9]; CDK3/CycE1, 1.0E-07 M): 115 % of control | Residual activity ([10]; MARK2, 1.0E-06 M): 114 % of control | Residual activity ([10]; MARK2, 1.0E-07 M): 104 % of control | Residual activity ([11]; NEK7, 1.0E-06 M): 101 % of control | Residual activity ([11]; NEK7, 1.0E-07 M): 129 % of control

C#Cc1cc(Nc2ncnc3cc(OC)c(OC)cc23)ccc1Cl [Compound 45]
Residual activity, SAK ([1]; assay conc. 1.0E-06 M): 82 % of control | Residual activity, SAK ([1]; assay conc. 1.0E-07 M): 99 % of control | Residual activity ([2]; 1.0E-06 M): 94 % of control | Residual activity ([2]; 1.0E-07 M): 125 % of control | Residual activity ([3]; 1.0E-06 M): 123 % of control | Residual activity ([3]; 1.0E-07 M): 98 % of control | Residual activity ([4]; 1.0E-06 M): 96 % of control | Residual activity ([4]; 1.0E-07 M): 139 % of control | Residual activity ([5]; CLK1, 1.0E-06 M): 79 % of control | Residual activity ([5]; CLK1, 1.0E-07 M): 102 % of control | Residual activity ([6]; NEK4, 1.0E-06 M): 84 % of control | Residual activity ([6]; NEK4, 1.0E-07 M): 106 % of control | Residual activity ([7]; LIMK2, 1.0E-06 M): 89 % of control | Residual activity ([7]; LIMK2, 1.0E-07 M): 94 % of control | Residual activity ([8]; 1.0E-06 M): 85 % of control | Residual activity ([8]; 1.0E-07 M): 90 % of control | Residual activity ([9]; CDK3/CycC, 1.0E-06 M): 86 % of control | Residual activity ([9]; CDK3/CycC, 1.0E-07 M): 92 % of control | Residual activity ([9]; CDK3/CycE1, 1.0E-06 M): 102 % of control | Residual activity ([9]; CDK3/CycE1, 1.0E-07 M): 117 % of control | Residual activity ([10]; MARK2, 1.0E-06 M): 90 % of control | Residual activity ([10]; MARK2, 1.0E-07 M): 103 % of control | Residual activity ([11]; NEK7, 1.0E-06 M): 107 % of control | Residual activity ([11]; NEK7, 1.0E-07 M): 117 % of control
